Assay results: a melting point compilation (Tetko et al.; mined from patent text by program, amines drawn as free bases though some values may be those of a salt)

Q: Which melting point does the source give for `COc1cccc(NC(=O)NC2N=C(c3ccccc3F)c3ccccc3N(C)C2=O)c1` (stereo not drawn) here?
A: Its melting point is 271 to 273 °C.

Q: With `CCOC(=O)C(Cl)=NNc1ccc(Cl)cc1` as the compound, how does the melting point read?
A: The melting point was 145 to 148 °C.

Q: For `CCC(=O)Nc1ccc(-c2ccc(C(=O)N3CCN4CCC3CC4)o2)cc1`, which melting point is on record?
A: Its melting point is 264 °C.

Q: With `N#Cc1ccc(-c2ccc(OC3SCC(O)C(O)C3O)cn2)cn1` (stereo not drawn) as the compound, how does the melting point read?
A: Its melting point is 167 °C.

Q: With `COC1=CC(=O)C(OC)=C(CCCCCC2=C(OC)C(=O)C(Cl)=C(OC)C2=O)C1=O` as the compound, how does the melting point read?
A: The melting point was 44.8 to 46 °C.

Q: Which melting point does the source give for `CCCN1CCC(C(=O)O)=Cc2cc(Br)ccc21` here?
A: Its melting point is 172 to 173 °C.

Q: For `COc1ccc(-c2cc(=O)n(Cc3ccccc3)nc2-c2ccc(OC)c(F)c2)cc1`, which melting point is on record?
A: The melting point was 137 to 138 °C.

Q: With `[N-]=[N+]=N[C@@H](C(=O)O)C(c1ccccc1)c1ccccc1` as the compound, how does the melting point read?
A: Its melting point is 108 to 110 °C.

Q: Which melting point does the source give for `CCOc1cccc2c1Sc1ccccc1C2` here?
A: The melting point was 95 to 98 °C.

Q: For `CCCCc1nc(CC(=O)OC)c(Cl)n1Cc1ccc(NC(=O)c2ccccc2C(=O)O)cc1`, which melting point is on record?
A: Its melting point is 150 to 152 °C.

Q: With `COc1ccc(S(=O)(=O)N2C(=O)C(N)(c3ccccc3Cl)c3cc(Cl)ccc32)c(N)c1` (stereo not drawn) as the compound, how does the melting point read?
A: The melting point was 160 to 166 °C.

Q: Which melting point does the source give for `N#Cc1cc(-c2ccc(C(F)(F)F)cc2)ccc1-n1cc(-c2cc(F)cc(F)c2)nn1` here?
A: Its melting point is 229 to 230 °C.

Q: With `COc1ccc(Cl)cc1-c1c(N)c(=O)[nH]c2cc(C(F)(F)F)cc(C(F)(F)F)c12` as the compound, how does the melting point read?
A: Its melting point is 265 to 267 °C.

Q: Which melting point does the source give for `CN(CC(=O)OC(C)(C)C)c1nccc(-c2nc(=O)c3ccccc3s2)n1` here?
A: Its melting point is 186 to 188 °C.

Q: For `CC(C)CCCC(C)NC1=NS(=O)(=O)c2sc(Cl)cc2N1` (stereo not drawn), which melting point is on record?
A: The melting point was 197 to 199 °C.

Q: For `CCCC(=O)c1ccc(OC)c(C(=O)Cl)c1`, which melting point is on record?
A: Its melting point is 65 °C.

Q: Which melting point does the source give for `CCc1c(-c2ccc(O)cc2)c2cc(C(C)=O)c3ccc(CO)c1n32` here?
A: Its melting point is 194 to 195 °C.

Q: Which melting point does the source give for `CC(C)(C)C(O)(CC(Br)=CBr)Cn1cncn1` (stereo not drawn) here?
A: Its melting point is 81 °C.

Q: Which melting point does the source give for `CCCOc1ccc(/C=C/C(=O)OC(C)(C)C)cc1-c1nc2c(CCC)nn(C)c2c(=O)[nH]1` here?
A: The melting point was 167 to 168 °C.

Q: For `CCc1nc2c(cnn2CC)c(NC2CCOCC2)c1CNC(=O)c1cccc(C(=O)NCc2ccc(C)c(-c3cccc(CN4CCN(C)CC4)c3)c2)c1`, which melting point is on record?
A: The melting point was 121 to 124 °C.

Q: With `CCCCOc1cccc(Cn2[nH]c(N)cc2=O)c1` as the compound, how does the melting point read?
A: The melting point was 110 °C.

Q: Which melting point does the source give for `CCOC(=O)Cn1nnnc1C(=O)OCC` here?
A: The melting point was 26 to 29.5 °C.

Q: For `CCCCCCCN(CCN1CCN(CCSc2nc3ncccc3o2)CC1)C(=O)Nc1c(C(C)C)cc(O)cc1C(C)C`, which melting point is on record?
A: Its melting point is 100 to 102 °C.

Q: For `COc1ccc(C2=C(c3ccc(C=CC(=O)O)cc3)c3ccc(OC)cc3CC2)cc1`, which melting point is on record?
A: Its melting point is 206 °C.

Q: Which melting point does the source give for `CC(C)(C)OC(=O)N1C(=O)[C@H]2C=C[C@@H]1C2` here?
A: The melting point was 70.5 to 71.5 °C.

Q: Which melting point does the source give for `CC1=NC(NC(=O)Nc2cccc(C)c2)C(=O)N(CC(=O)N2CCN(CCO)CC2)c2c(C)cccc21` (stereo not drawn) here?
A: Its melting point is 222 to 224 °C.

Q: Which melting point does the source give for `COc1cc(C(=O)c2c(N)sc3c2CCN(C(=O)c2ccccc2)C3)ccc1OC(C)C` here?
A: Its melting point is 158 to 160 °C.

Q: For `COc1ccc(/C=N/Nc2nccc(C(F)(F)F)n2)cc1OC1CCCC1`, which melting point is on record?
A: Its melting point is 73 to 75 °C.

Q: With `NC(=O)c1ccc(C(F)(F)F)nc1N` as the compound, how does the melting point read?
A: Its melting point is 227 to 229 °C.

Q: Which melting point does the source give for `Sc1c(Cl)ccc(Cl)c1S` here?
A: Its melting point is 57 to 58 °C.

Q: With `COC(=O)N1CCC(C(C#N)(c2ccccc2)c2ccccc2)C1` (stereo not drawn) as the compound, how does the melting point read?
A: Its melting point is 133 to 135 °C.

Q: For `O=C1Nc2cccnc2N(C(=O)NCCN2CCCCC2CN2CCCCCC2)c2ccccc21` (stereo not drawn), which melting point is on record?
A: Its melting point is 156 to 158 °C.

Q: For `Cc1ccc(-c2nc(Cc3cccc(Br)c3)c(C)o2)cc1`, which melting point is on record?
A: The melting point was 74 to 75 °C.

Q: For `[N-]=[N+]=C1C(=O)CC2CCCCC2C1=O` (stereo not drawn), which melting point is on record?
A: Its melting point is 81 to 83 °C.

Q: Which melting point does the source give for `O=C(O)c1ccc(Br)c(CN2CCC(c3cn(Cc4ccncc4)c4ccccc34)CC2)c1` here?
A: The melting point was 167 to 168 °C.

Q: With `COc1ccc(-c2oc3cc(NS(C)(=O)=O)c(Oc4ccccc4)cc3c(=O)c2O)cc1OC` as the compound, how does the melting point read?
A: Its melting point is 222 to 224 °C.

Q: With `OCc1ccc(O)c(CO)c1CNCCCCCCOCCCCCc1ccco1` as the compound, how does the melting point read?
A: Its melting point is 59 to 60 °C.

Q: Which melting point does the source give for `CCCCCCC1(C(=O)NCCC)c2ccccc2Oc2ccccc21` here?
A: The melting point was 76 to 77.5 °C.
